The test system of this experiment is ZIKA rabbits. The class given is in vivo. Conditions: rabbits n=3 immunized with CRM197-23* in alhydrogel day 0 and 14; sera before and after immunization.

These results are taken from patent publication US10688169B2 (priority 2015, dated 2020).

Molecules are shown by their SMILES. “Also recorded” adds a separate entry of the source.

`C[C@@H]1O[C@@H](O[C@H]2C(C(=O)O)O[C@H](OC3C(O)[C@@H](O)[C@H](C)O[C@H]3OC3C(O)[C@@H](O)[C@H](C)O[C@H]3OC3C(O)[C@@H](O)[C@H](C)O[C@H]3OCCCCCN)C(O)[C@H]2O[C@@H]2OC(CO)[C@H](O)[C@H](O)C2O)C(O)C(O)[C@H]1O` (stereo partly drawn) [hexasaccharide 23*, 5-Amino-pentanyl α-L-rhamnopyranosyl-(1→4)-[P3-D-galactopyranosyl-(1→3)]-α-D-galactopyranosyluronic acid-(1→2)-α-L-rhamnopyranosyl-(1→2)-α-L-rhamnopyranosyl-(1→2)-α-L-rhamnopyranoside]: the “immunogenicity and cross-reactivity of antibodies by glycan microarray” value was “specific antibodies are cross-reactive with native polysaccharide and other synthetic glycans; also recorded: immunogenic in rabbits and induces cross-reactive antibodies”.
